# Laboratory results from ChEMBL document CHEMBL1149401, “Isolation and inhibitory activity against ERK phosphorylation of hydroxyanthraquinones from rhubarb” (2006).
# Active and inactive are the calls of the source. No cut-off for these calls is given here.
# Assays:
# [1] = target: Platelet-derived growth factor receptor (Homo sapiens) (UniProt P09619+P16234); experiment: Inhibitory activity on PDGF-induced ERK phosphorylation in NIH3T3 cells at 20 uM; type: cell-based
# PC-3 = experiment: Antiproliferative activity against prostate cancer PC3 cell line at 20 uM by MTT method; type: functional; settings: Homo sapiens
# A-431 = experiment: Antiproliferative activity against human epidermal carcinoma A431 cell line at 20 uM by MTT method; type: functional
# Fusarium oxysporum = experiment: Antifungal activity against Fusarium oxysporum at 0.5 mg/ml; type: functional
# Fusarium graminearum = experiment: Antifungal activity against Gibberella zeae at 0.5 mg/ml; type: functional
# Phytophthora infestans = experiment: Antifungal activity against Phytopthora infestans at 0.5 mg/ml; type: functional
# [2] = target: Epidermal growth factor receptor (Homo sapiens) (UniProt P00533); experiment: Inhibitory activity on EGF-induced ERK phosphorylation in prostate cancer PC3 cell line at 20 uM; type: cell-based; settings: PC-3
# Epidermal growth factor receptor (Homo sapiens), sequence (P00533 whole entry): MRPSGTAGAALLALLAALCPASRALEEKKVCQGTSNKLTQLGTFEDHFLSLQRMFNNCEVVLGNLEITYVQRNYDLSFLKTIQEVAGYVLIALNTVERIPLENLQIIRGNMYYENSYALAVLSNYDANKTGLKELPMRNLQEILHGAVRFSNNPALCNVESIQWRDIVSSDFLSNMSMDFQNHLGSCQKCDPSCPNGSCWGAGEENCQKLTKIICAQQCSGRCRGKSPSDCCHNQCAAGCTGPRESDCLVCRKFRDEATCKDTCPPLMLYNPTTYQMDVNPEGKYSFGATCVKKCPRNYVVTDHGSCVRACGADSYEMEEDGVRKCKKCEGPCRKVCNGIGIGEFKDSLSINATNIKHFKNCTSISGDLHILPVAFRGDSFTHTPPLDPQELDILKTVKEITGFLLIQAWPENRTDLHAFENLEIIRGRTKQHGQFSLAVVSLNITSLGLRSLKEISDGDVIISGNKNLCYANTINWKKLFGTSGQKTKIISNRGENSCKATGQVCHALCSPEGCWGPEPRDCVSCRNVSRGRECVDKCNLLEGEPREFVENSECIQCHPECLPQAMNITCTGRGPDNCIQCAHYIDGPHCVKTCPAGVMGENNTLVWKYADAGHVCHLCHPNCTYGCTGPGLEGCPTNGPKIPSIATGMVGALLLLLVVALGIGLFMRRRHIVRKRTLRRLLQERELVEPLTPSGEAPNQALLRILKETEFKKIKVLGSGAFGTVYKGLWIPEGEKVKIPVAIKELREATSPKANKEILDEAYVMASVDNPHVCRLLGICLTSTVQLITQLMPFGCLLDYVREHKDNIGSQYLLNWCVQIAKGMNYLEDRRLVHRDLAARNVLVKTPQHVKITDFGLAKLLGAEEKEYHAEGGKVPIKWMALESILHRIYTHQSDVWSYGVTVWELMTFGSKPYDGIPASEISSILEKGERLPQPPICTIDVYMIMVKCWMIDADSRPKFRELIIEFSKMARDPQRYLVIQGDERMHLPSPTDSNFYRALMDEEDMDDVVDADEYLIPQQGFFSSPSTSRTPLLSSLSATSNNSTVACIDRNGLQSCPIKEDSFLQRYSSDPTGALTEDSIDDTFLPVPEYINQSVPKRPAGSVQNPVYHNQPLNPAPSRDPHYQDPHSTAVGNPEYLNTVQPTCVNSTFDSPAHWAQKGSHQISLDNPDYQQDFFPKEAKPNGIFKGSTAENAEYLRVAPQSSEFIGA
Compound,Activity [1],inhibition at 20 µM (PC-3) [%],inhibition at 20 µM (A-431) [%],inhibition at 500 µg/mL (Fusarium oxysporum) [%],inhibition at 500 µg/mL (Fusarium graminearum) [%],inhibition at 500 µg/mL (Phytophthora infestans) [%],inhibition (A-431),Activity [2],inhibition (PC-3)
COc1cc(O)c2c(c1)C(=O)c1cc(C)cc(O)c1C2=O [PHYSCION],inactive,73.2,80.5,0,10.1,19.1,–,–,–
O=C(O)c1cc(O)c2c(c1)C(=O)c1cccc(O)c1C2=O [RHEIN],inactive,54.2,–,39.8,33.4,39.5,inactive,–,–
O=C1c2cccc(O)c2C(=O)c2c(O)cc(CO)cc21 [ALOE-EMODIN],inactive,63.4,73.6,28.8,37.1,24.4,–,Active,–
Cc1cc(O)c2c(c1)C(=O)c1cc(O)cc(O)c1C2=O [EMODIN],inactive,–,–,9.37,25.7,21.2,inactive,–,inactive
Cc1cc(O)c2c(c1)C(=O)c1cccc(O)c1C2=O [CHRYSOPHANOL],inactive,19.5,21.1,5.4,0,2.4,–,–,–
